# Source: patent publication US20200239921A1, “CHEMOENZYMATIC SYNTHESIS OF S-NUCLEOSYL AMINO ACIDS (SNA), ANALOGS OF S-ADENOSYL-L-METHIONINE AND S-ADENOSYL-L- HOMOCYSTEINE AND USES THEREOF” (ALBERT EINSTEIN COLLEGE OF MEDICINE, priority 2016, published 2020)
# Key:
# [1] = target: T1, S-adenosyl-L-homocysteine hydrolase from Lupinus luteus (L/SAHH) (Lupinus luteus, UniProt Q9SP37); experiment: SAHH-catalysed synthesis of SAH analogs; format: biochemical; details: in vitro, reaction displaced toward SAH production
# T1 construct: made in house; host or cells: E. coli
# T1 sequence (Q9SP37 1-485): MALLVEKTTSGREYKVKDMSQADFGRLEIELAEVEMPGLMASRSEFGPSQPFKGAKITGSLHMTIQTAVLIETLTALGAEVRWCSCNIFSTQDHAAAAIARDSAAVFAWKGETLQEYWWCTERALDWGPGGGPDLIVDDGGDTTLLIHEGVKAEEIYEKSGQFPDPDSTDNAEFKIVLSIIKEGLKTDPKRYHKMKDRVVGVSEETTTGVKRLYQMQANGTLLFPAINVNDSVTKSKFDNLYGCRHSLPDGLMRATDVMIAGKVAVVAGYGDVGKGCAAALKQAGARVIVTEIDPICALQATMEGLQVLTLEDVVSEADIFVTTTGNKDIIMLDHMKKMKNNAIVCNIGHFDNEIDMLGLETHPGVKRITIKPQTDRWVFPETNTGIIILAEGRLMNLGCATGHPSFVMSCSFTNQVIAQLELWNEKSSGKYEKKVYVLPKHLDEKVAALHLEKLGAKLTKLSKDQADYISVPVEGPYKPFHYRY
# Text: Alternative chemoenzymatic routes. A few SNA probes are difficult to prepare. To broaden the substrate diversity, the reversible reaction catalyzed by S-adenosyl-L-homocysteine hydrolase from Lupinus luteus (L/SAHH) that is displaced toward SAH production in vitro was used (FIG. 5B). […] This powerful catalyst was a useful tool for production of S-nucleosyl-L-homocysteine and S-nucleosyl-L-cysteine analogs (SNH and SNC, respectively). Unlike SAM analogs, SNH and SNC probes are not substrates for PRMTs, so they are assayed as competitive inhibitors.
# [2] = system: MAT from Campylobacter jejuni (CjMAT); experiment: CjMAT methionine analog specificity; format: biochemical; details: FIG. 6
# Text: (§1) An enzyme array to incorporate a broad spectrum of methionine analogs. To expand the SNA library, the reactivity of several methionine analogs (FIG. 4C, amino-acid tail labelled ‘METHIONINE’) was screened toward MjMAT in the presence of ATP. […] MAT enzymes from Neisseria meningitidis (Nm) and Campylobacter jejuni (Cj) (FIG. 4B) were expressed and purified.
# [3] = system: AK/MK/PK enzymatic system; experiment: AK/MK/PK enzymatic conversion to nucleoside triphosphate; format: biochemical
# [4] = target: T2, Methanococcus jannaschii MAT (MjMAT) (Methanocaldococcus jannaschii, UniProt Q58605); experiment: MjMAT substrate specificity (HPLC); format: biochemical; details: in the presence of ATP
# T2 construct: made in house; host or cells: E. coli
# T2 sequence (Q58605 1-406): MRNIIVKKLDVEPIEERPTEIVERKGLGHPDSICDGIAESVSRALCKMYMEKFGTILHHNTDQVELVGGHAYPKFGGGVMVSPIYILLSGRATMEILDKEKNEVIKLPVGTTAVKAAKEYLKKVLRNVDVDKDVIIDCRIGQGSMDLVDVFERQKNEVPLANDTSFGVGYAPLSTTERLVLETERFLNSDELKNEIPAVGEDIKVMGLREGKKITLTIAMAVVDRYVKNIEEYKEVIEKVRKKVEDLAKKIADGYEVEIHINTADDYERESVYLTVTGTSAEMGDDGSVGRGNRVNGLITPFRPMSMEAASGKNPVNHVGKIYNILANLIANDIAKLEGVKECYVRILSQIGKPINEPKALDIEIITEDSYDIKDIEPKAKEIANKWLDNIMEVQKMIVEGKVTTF
# Protocol: Synthetic chemical approaches yield a 1:1 mixture of the two SAM stereoisomers (FIG. 4A, shaded middle frame). The enzymes that catalyze the formation of SAM from ATP and L-methionine in vivo are used to produce SAM analogs (MAT; FIG. 4A, top enzymatic approach). Adenosine phosphorylation is performed by kinases (e.g. adenosine kinase ‘AK’, myokinase ‘MK’ and pyruvate kinase ‘PK’; FIG. 4, top enzymatic approach). MAT proteins are well characterized and several mechanistic and structural biology reports make these enzymes the preferred biocatalyst for rapid access to SAM analogs. Methanococcus jannaschii MAT has been purified (MjMAT; FIG. 4B).
# as §1
# [5] = system: MAT from Neisseria meningitidis (NmMAT); experiment: NmMAT methionine analog specificity; format: biochemical; details: FIG. 6
# Text: as §1
# [6] = target: T3, SAM-dependent chlorinase from Salinispora tropica (StSalL) (Salinispora tropica, UniProt A4X3Q0); experiment: StSalL methionine analog specificity; format: biochemical; details: in the presence of 5′-chloro-5′-deoxy adenosine
# T3 construct: made in house; host or cells: E. coli
# T3 sequence (A4X3Q0 1-283): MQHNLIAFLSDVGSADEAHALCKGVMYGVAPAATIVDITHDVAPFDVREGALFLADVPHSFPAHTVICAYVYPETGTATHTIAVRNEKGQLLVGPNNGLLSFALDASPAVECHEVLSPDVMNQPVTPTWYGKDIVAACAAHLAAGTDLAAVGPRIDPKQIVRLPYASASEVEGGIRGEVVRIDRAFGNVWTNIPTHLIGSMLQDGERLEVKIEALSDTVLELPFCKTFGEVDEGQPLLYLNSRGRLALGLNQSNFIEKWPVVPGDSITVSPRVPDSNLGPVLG
# Protocol: The unique SAM-dependent chlorinase from the marine organism Salinispora tropica (StSalL) is a key enzyme for salinosporamide A biosynthesis. Although the occurrence of high chloride concentration (i.e. 546 mM) in sea water shifts the chemical equilibrium away from SAM synthesis, this reaction is reversible in vitro. StSalL (FIG. 4B) was expressed and purified, and the methionine analog specificity for this enzyme was determined in the presence of 5′-chloro-5′-deoxy adenosine (5′-ClDA; FIG. 6).
# PRMT1 = details: cited from earlier work
# methyltransferases = details: FIG. 2 first row from table; cited from earlier work
compound,measurement,setting,value
N[C@@H](CCS)C(=O)O [L-homocysteine],utilization as substrate by SAHH,[1],could utilize
"CSCC[C@H](N)CO [M3, (S)-(−)-methioniol]",reactivity of methionine analog toward CjMAT,[2],excellent substrate
Nc1ncnc2c1ncn2[C@@H]1O[C@H](CO)[C@@H](O)[C@@H]1F [942′-deoxy-2′-fluoro-β-D-arabinofuranosylladenine],reactivity in AK/MK/PK enzymatic system,[3],low reactivity
N[C@@H](CS)C(=O)O [L-cysteine],utilization as substrate by SAHH,[1],could utilize
"CSCC[C@H](N)C(=O)O [M0, L-methionine]",reactivity of methionine analog toward MjMAT,[4],efficiently processed
"CSCCC(O)C(=O)O (centres unmarked) [M4, 2-hydroxy-4-(methylthio) butanoic acid]",reactivity of methionine analog toward NmMAT,[5],reactivity was not observed
same,reactivity of methionine analog toward MjMAT,[4],reactivity was not observed
same,reactivity of methionine analog toward CjMAT,[2],reactivity was not observed
same,reactivity of methionine analog toward StSalL,[6],Reactivity was observed
NCCCSC[C@H]1O[C@@H](n2cnc3c(N)ncnc32)[C@H](O)[C@@H]1O [S-(5′-adenosyl)-3-thiopropylamine],selectivity for PRMT1 over PRMT6,PRMT1,10 fold
"CSCC[C@](C)(N)C(=O)O [M2, α-methyl-methionine]",reactivity of methionine analog toward NmMAT,[5],substrate
same,reactivity of methionine analog toward CjMAT,[2],substrate
"CSCC[C@@H](N)C(=O)O [M1, D-methionine]",reactivity of methionine analog toward MjMAT,[4],efficiently processed
"Nc1ncnc2c1ncn2[C@@H]1O[C@H](CSCC[C@H](N)C(=O)O)[C@@H](O)[C@H]1O [SAH, S-adenosyl-L-homocysteine]",inhibition of methyltransferases (in words),methyltransferases,"potent, yet non-specific, inhibitor of methyltransferases"
